Our source for the Emax and EC50 values is patent publication US8299048B2, “Hexahydrocyclopentyl[f]indazole sulfonamides and derivatives thereof as selective glucocorticoid receptor modulators” (Merck Sharp & Dohme Corp., priority 2008, dated 2012).

This experiment concerns the target T1, human GR (Homo sapiens, UniProt P04150).
T1 sequence (P04150 1-777): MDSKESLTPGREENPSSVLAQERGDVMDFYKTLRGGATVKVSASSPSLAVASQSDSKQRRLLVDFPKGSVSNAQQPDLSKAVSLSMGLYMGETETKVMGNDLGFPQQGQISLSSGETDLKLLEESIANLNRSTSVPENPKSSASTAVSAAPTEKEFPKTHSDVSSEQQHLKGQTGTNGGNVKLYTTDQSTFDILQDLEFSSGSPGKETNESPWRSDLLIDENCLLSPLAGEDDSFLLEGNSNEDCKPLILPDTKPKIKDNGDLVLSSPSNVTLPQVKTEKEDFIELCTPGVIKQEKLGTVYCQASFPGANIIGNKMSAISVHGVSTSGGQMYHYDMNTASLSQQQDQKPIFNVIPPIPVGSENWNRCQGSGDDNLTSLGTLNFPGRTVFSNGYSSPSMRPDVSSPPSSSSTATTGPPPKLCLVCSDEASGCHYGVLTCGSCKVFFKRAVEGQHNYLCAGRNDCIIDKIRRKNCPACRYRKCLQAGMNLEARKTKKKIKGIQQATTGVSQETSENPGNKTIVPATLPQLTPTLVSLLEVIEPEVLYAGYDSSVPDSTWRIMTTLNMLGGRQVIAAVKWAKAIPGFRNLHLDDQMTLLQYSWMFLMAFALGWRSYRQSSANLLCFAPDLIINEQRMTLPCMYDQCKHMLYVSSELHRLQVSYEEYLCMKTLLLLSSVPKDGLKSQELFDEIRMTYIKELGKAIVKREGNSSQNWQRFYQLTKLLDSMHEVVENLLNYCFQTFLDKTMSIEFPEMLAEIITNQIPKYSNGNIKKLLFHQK
Put plainly: Trans-Activation Modulation of Glucocorticoid Receptor (GRAMMER), MMTV-LUC reporter, agonist mode. It counts as cell-based. Further details: endogenous in cells. The conditions noted are these: for Emax: A549, A549 cells, maximum activity, read-out: Transactivation A549 Cells GRAMMER Emax; for EC50: A549 cells, inflection point, read-out: Transactivation A549 Cells GRAMMER IP. In a few lines:
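Readout is luciferase from a modified MMTV LTR promoter after 24 h compound exposure alongside 10 nM dexamethasone (100% activity reference), DMSO ≤1%.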

Structures are written as SMILES.

For the compound `C[C@]12Cc3cnn(-c4ccc(F)cc4)c3C=C1CC[C@@H]2CN(CCc1ccccc1F)S(=O)(=O)Cc1ccccc1C(N)=O` [Example 190, 2-{[([2-(2-fluorophenyl)ethyl]{[(4αR,5S)-1-(4-fluorophenyl)-4α-methyl-1,4,4α,5,6,7-hexahydrocyclopenta[f]indazol-5-yl]methyl}amino)sulfonyl]methyl}benzamide], the Emax stood at 65.1% and the EC50 was determined as 424 nM.
`C[C@]12Cc3cnn(-c4ccc(F)cc4)c3C=C1CC[C@@H]2CN(CC1CCCO1)S(=O)(=O)c1ccc(C(N)=O)cc1` (stereo partly drawn) [Example 191, 4-{[{[(4αR,5S)-1-(4-fluorophenyl)-4α-methyl-1,4,4α,5,6,7-hexahydrocyclopenta[f]indazol-5-yl]methyl}(tetrahydrofuran-2-ylmethyl)amino]sulfonyl}benzamide]: the Emax worked out at 27.1% and the EC50 turned out to be 338 nM.
For `C[C@]12Cc3cnn(-c4ccc(F)cc4)c3C=C1CC[C@@H]2CN(Cc1ccccc1F)S(=O)(=O)c1cccc(C(N)=O)c1` [Example 192, 3-[((2-fluorobenzyl){[(4αR,5S)-1-(4-fluorophenyl)-4α-methyl-1,4,4α,5,6,7-hexahydrocyclopenta[f]indazol-5-yl]methyl}amino)sulfonyl]benzamide] the same measures were 4.3% and 170 nM.
As for `C[C@]12Cc3cnn(-c4ccc(F)cc4)c3C=C1CC[C@@H]2CN(CCCc1ccccc1)S(=O)(=O)CC(F)(F)F` [Example 193, 2,2,2-trifluoro-N-{[(4αR,5S)-1-(4-fluorophenyl)-4α-methyl-1,4,4α,5,6,7-hexahydrocyclopenta[f]indazol-5-yl]methyl}-N-(3-phenylpropyl)ethanesulfonamide], the Emax turned out to be 55.4% and the EC50 was determined as 303 nM.
Turning to `Cc1noc(C)c1S(=O)(=O)N(CCCc1ccccc1)C[C@H]1CCC2=Cc3c(cnn3-c3ccc(F)cc3)C[C@@]21C` [Example 194, N-{[(4αR,5S)-1-(4-fluorophenyl)-4α-methyl-1,4,4α,5,6,7-hexahydrocyclopenta[f]indazol-5-yl]methyl}-3,5-dimethyl-N-(3-phenylpropyl)isoxazole-4-sulfonamide], the Emax is 41.9% and the EC50 worked out at 517 nM.
For `C[C@]12Cc3cnn(-c4ccc(F)cc4)c3C=C1CC[C@@H]2CN(CCCc1ccccc1)S(=O)(=O)c1ccccc1F` [Example 195, 2-fluoro-N-{[(4αR,5S)-1-(4-fluorophenyl)-4α-methyl-1,4,4α,5,6,7-hexahydrocyclopenta[f]indazol-5-yl]methyl}-N-(3-phenylpropyl)benzenesulfonamide] the same measures were 12.9% and 542 nM.
For `C[C@]12Cc3cnn(-c4ccc(F)cc4)c3C=C1CC[C@@H]2CN(CCc1ccccn1)S(=O)(=O)Cc1ccccc1C(N)=O` [Example 196, 2-({[{[(4αR,5S)-1-(4-fluorophenyl)-4α-methyl-1,4,4α,5,6,7-hexahydrocyclopenta[f]indazol-5-yl]methyl}(2-pyridin-2-ylethyl)amino]sulfonyl}methyl)benzamide] the same measures were 36.6% and 552 nM.
As to `CC([C@H]1CCC2=Cc3c(cnn3-c3ccc(F)cc3)C[C@@]21C)N(CCc1ccccn1)S(=O)(=O)Cc1cccnc1` (stereo partly drawn) [Example 197, N-{1-[(4αR)-1-(4-fluorophenyl)-4α-methyl-1,4,4α,5,6,7-hexahydrocyclopenta[f]indazol-5-yl]ethyl}-1-pyridin-3-yl-N-(2-pyridin-2-ylethyl)methanesulfonamide], the Emax turned out to be 43.7% and the EC50 was determined as 769 nM.
As to `C[C@]12Cc3cnn(-c4ccc(F)cc4)c3C=C1CC[C@@H]2CN(CCO)S(=O)(=O)Cc1ccccc1C(N)=O` [Example 198, 2-({[{[(4αR,5S)-1-(4-fluorophenyl)-4α-methyl-1,4,4α,5,6,7-hexahydrocyclopenta[f]indazol-5-yl]methyl}(2-hydroxyethyl)amino]sulfonyl}methyl)benzamide], the Emax turned out to be 8.2% and the EC50 came to 1230 nM.
For `CC(C)(O)CN(C[C@H]1CCC2=Cc3c(cnn3-c3ccc(F)cc3)C[C@@]21C)S(=O)(=O)c1ccccc1F` [Example 199, 2-fluoro-N-{[(4αR,5S)-1-(4-fluorophenyl)-4α-methyl-1,4,4α,5,6,7-hexahydrocyclopenta[f]indazol-5-yl]methyl}-N-(2-hydroxy-2-methylpropyl)benzenesulfonamide] the same measures were 58.6% and 96.8 nM.
`C[C@]12Cc3cnn(-c4ccc(F)cc4)c3C=C1CC[C@@H]2CN(CC1(O)CC1)S(=O)(=O)c1ccccc1F` [Example 200, 2-fluoro-N-{[(4αR,5S)-1-(4-fluorophenyl)-4α-methyl-1,4,4α,5,6,7-hexahydrocyclopenta[f]indazol-5-yl]methyl}-N-[(1-hydroxycyclopropyl)methyl]benzenesulfonamide]: the Emax turned out to be 57.5% and the EC50 stood at 47.9 nM.
Turning to `C[C@]12Cc3cnn(-c4ccc(F)cc4)c3C=C1CC[C@@H]2CN(CC1(O)CCCCC1)S(=O)(=O)c1ccccc1F` [Example 201, 2-fluoro-N-{[(4αR,5S)-1-(4-fluorophenyl)-4α-methyl-1,4,4α,5,6,7-hexahydrocyclopenta[f]indazol-5-yl]methyl}-N-[(1-hydroxycyclohexyl)methyl]benzenesulfonamide], the Emax came to 47.8% and the EC50 was found to be 88.4 nM.
